In patent publication US7179806B2, “Δ1-pyrrolines used as pesticides” (Bayer Cropscience AG, priority 2000, dated 2007):

Experiment: log P determination by HPLC (reversed-phase C18, EEC Directive 79/831 Annex V.A8)
Assay type: physicochemical
Conditions: pH 2.3, 0.1% aqueous phosphoric acid/acetonitrile gradient, 43° C
Source text: Mobile phases for determination in the acidic range: 0.1% aqueous phosphoric acid, acetonitrile; linear gradient from 10% acetonitrile to 90% acetonitrile.
In the case of CN(C)c1ncc(-c2ccc(C3CCC(c4c(F)cccc4F)=N3)cc2)cn1 (stereo not shown) [Example 42], the “log P (pH 2.3)” value is reported as 2.40.
For CC(C)(C)OC(=O)N1CCN(c2ccc(-c3ccc(C4CCC(c5c(F)cccc5F)=N4)cc3)nn2)CC1 (stereo not shown) [Example 51], the chromatographic logP was 2.07.

Same assay, conditions: reversed-phase C18 HPLC column, pH 2.3, pH 2.3, 0.1% aqueous phosphoric acid/acetonitrile gradient, 43° C
In the case of CCCN(CC)c1ncc(-c2ccc(C3CCC(c4c(F)cccc4F)=N3)cc2)cn1 (stereo not shown) [Example 1, N-(5-{4-[5-(2,6-difluorophenyl)-3,4-dihydro-2H-pyrrol-2-yl]phenyl}-2-pyrimidinyl)-N-ethyl-N-propylamine], the chromatographic logP is reported as 3.57.
Work on Fc1cccc(F)c1C1=NC(c2ccc(-c3ccc(C(F)(F)F)cn3)cc2)CC1 (stereo not shown) [Example 2] yielded a chromatographic logP of 3.25.
For Fc1cccc(F)c1C1=NC(c2ccc(-c3cnc(OCC(F)(F)F)nc3)cc2)CC1 (stereo not shown) [Example 3, 5-{4-[5-(2,6-difluorophenyl)-3,4-dihydro-2H-pyrrol-2-yl]phenyl}-2-(2,2,2-trifluorethoxy)pyrimidine], the chromatographic logP was 2.88.
Fc1cccc(F)c1C1=NC(c2ccc(-c3ccccn3)cc2)CC1 (stereo not shown) [Example 4] gave a chromatographic logP of 1.24.
Compound Fc1cccc(F)c1C1=NC(c2ccc(-c3ccc(Cl)cn3)cc2)CC1 (stereo not shown) [Example 5] has a chromatographic logP of 2.86.
With N#CCc1ccc(-c2ccc(C3CCC(c4c(F)cccc4F)=N3)cc2)nc1 (stereo not shown) [Example 6] the chromatographic logP was 1.74.
For COC(=O)c1ccc(-c2ccc(C3CCC(c4c(F)cccc4F)=N3)cc2)nc1 (stereo not shown) [Example 7], the chromatographic logP was 2.39.
CC(C)OC(=O)c1ccc(-c2ccc(C3CCC(c4c(F)cccc4F)=N3)cc2)nc1 (stereo not shown) [Example 8] showed a chromatographic logP of 3.89.
CC(C)COC(=O)c1ccc(-c2ccc(C3CCC(c4c(F)cccc4F)=N3)cc2)nc1 (stereo not shown) [Example 9] showed a chromatographic logP of 3.28.
Compound CCN(CC)C(=O)c1ccc(-c2ccc(C3CCC(c4c(F)cccc4F)=N3)cc2)nc1 (stereo not shown) [Example 10] has a chromatographic logP of 2.02.
CCCN(CCC)C(=O)c1ccc(-c2ccc(C3CCC(c4c(F)cccc4F)=N3)cc2)nc1 (stereo not shown) [Example 11] showed a chromatographic logP of 2.7.
For CN(Cc1ccc(-c2ccc(C3CCC(c4c(F)cccc4F)=N3)cc2)nc1)S(=O)(=O)C(F)(F)F (stereo not shown) [Example 13], the chromatographic logP was 3.06.
CC(C)N(Cc1ccc(-c2ccc(C3CCC(c4c(F)cccc4F)=N3)cc2)nc1)S(=O)(=O)C(F)(F)F (stereo not shown) [Example 14] gave a chromatographic logP of 3.48.
O=S(=O)(N(Cc1ccc(-c2ccc(C3CCC(c4c(F)cccc4F)=N3)cc2)nc1)C1CC1)C(F)(F)F (stereo not shown) [Example 15] gave a chromatographic logP of 3.39.
COCCN(Cc1ccc(-c2ccc(C3CCC(c4c(F)cccc4F)=N3)cc2)nc1)S(=O)(=O)C(F)(F)F (stereo not shown) [Example 16] showed a chromatographic logP of 3.21.
CCN(Cc1ccc(-c2ccc(C3CCC(c4c(F)cccc4F)=N3)cc2)nc1)S(=O)(=O)C(F)(F)F (stereo not shown) [Example 17] gave a chromatographic logP of 3.35.
Fc1cccc(F)c1C1=NC(c2ccc(-c3cccnc3)cc2)CC1 (stereo not shown) [Example 18] gave a chromatographic logP of 1.12.
With Fc1cccc(F)c1C1=NC(c2ccc(-c3ccc(Cl)nc3)cc2)CC1 (stereo not shown) [Example 19] the chromatographic logP was 2.58.
In the case of Fc1cccc(F)c1C1=NC(c2ccc(-c3ccc(OCC(F)(F)F)nc3)cc2)CC1 (stereo not shown) [Example 20], the chromatographic logP is reported as 3.66.
Compound Fc1cccc(F)c1C1=NC(c2ccc(-c3ccc(N4CCOCC4)nc3)cc2)CC1 (stereo not shown) [Example 21] has a chromatographic logP of 1.44.
Compound CN(c1ccc(-c2ccc(C3CCC(c4c(F)cccc4F)=N3)cc2)nc1)S(=O)(=O)C(F)(F)F (stereo not shown) [Example 23] has a chromatographic logP of 2.63.
In the case of Fc1cccc(F)c1C1=NC(c2ccc(-c3ccc(N4CCCC4)nc3)cc2)CC1 (stereo not shown) [Example 24], the chromatographic logP is reported as 1.45.
In the case of Fc1cccc(F)c1C1=NC(c2ccc(-c3ncccn3)cc2)CC1 (stereo not shown) [Example 26], the chromatographic logP is reported as 1.79.
With Fc1cccc(F)c1C1=NC(c2ccc(-c3cnc(Cl)nc3)cc2)CC1 (stereo not shown) [Example 27] the chromatographic logP was 1.98.
In the case of Fc1cccc(F)c1C1=NC(c2ccc(-c3cncnc3)cc2)CC1 (stereo not shown) [Example 28], the chromatographic logP is reported as 1.49.
With CN(C)c1ncc(-c2ccc(C3CCC(c4c(F)cccc4F)=N3)cc2)cn1 (stereo not shown) [Example 29] the chromatographic logP was 3.62.
Compound CC(C)Oc1ncc(-c2ccc(C3CCC(c4c(F)cccc4F)=N3)cc2)cn1 (stereo not shown) [Example 30] has a chromatographic logP of 2.61.
In the case of CC(C)Sc1ncc(-c2ccc(C3CCC(c4c(F)cccc4F)=N3)cc2)cn1 (stereo not shown) [Example 31], the chromatographic logP is reported as 3.49.
With Fc1cccc(F)c1C1=NC(c2ccc(-c3cnc(N4CCOCC4)nc3)cc2)CC1 (stereo not shown) [Example 32] the chromatographic logP was 2.18.
With CC(C)COc1ncc(-c2ccc(C3CCC(c4c(F)cccc4F)=N3)cc2)cn1 (stereo not shown) [Example 33] the chromatographic logP was 3.22.
CC1CC(C)CN(c2ncc(-c3ccc(C4CCC(c5c(F)cccc5F)=N4)cc3)cn2)C1 (stereo not shown) [Example 34] gave a chromatographic logP of 4.39.
Fc1cccc(F)c1C1=NC(c2ccc(-c3cnc(N4CCCCC4)nc3)cc2)CC1 (stereo not shown) [Example 35] showed a chromatographic logP of 3.4.
With CC(C)(C)C(=O)N1CCN(c2ncc(-c3ccc(C4CCC(c5c(F)cccc5F)=N4)cc3)cn2)CC1 (stereo not shown) [Example 36] the chromatographic logP was 2.81.
CN(c1ncc(-c2ccc(C3CCC(c4c(F)cccc4F)=N3)cc2)cn1)S(=O)(=O)C(F)(F)F (stereo not shown) [Example 37] showed a chromatographic logP of 3.5.
Work on O=S(=O)(N(c1ncc(-c2ccc(C3CCC(c4c(F)cccc4F)=N3)cc2)cn1)C1CC1)C(F)(F)F (stereo not shown) [Example 38] yielded a chromatographic logP of 3.63.
For Fc1cccc(F)c1C1=NC(c2ccc(-c3cnc(N4CCCC4)nc3)cc2)CC1 (stereo not shown) [Example 41], the chromatographic logP was 2.11.
In the case of CCN(CC)c1ncc(-c2ccc(C3CCC(c4c(F)cccc4F)=N3)cc2)cn1 (stereo not shown) [Example 43], the chromatographic logP is reported as 3.
Fc1cccc(F)c1C1=NC(c2ccc(-c3ccc(OCC(F)(F)F)nn3)cc2)CC1 (stereo not shown) [Example 45] gave a chromatographic logP of 3.77.
With CC(C)Oc1ccc(-c2ccc(C3CCC(c4c(F)cccc4F)=N3)cc2)nn1 (stereo not shown) [Example 46] the chromatographic logP was 2.5.
Work on CC(C)Sc1ccc(-c2ccc(C3CCC(c4c(F)cccc4F)=N3)cc2)nn1 (stereo not shown) [Example 47] yielded a chromatographic logP of 2.94.
In the case of Fc1cccc(F)c1C1=NC(c2ccc(-c3ccc(N4CCOCC4)nn3)cc2)CC1 (stereo not shown) [Example 48], the chromatographic logP is reported as 1.19.
For CCCNc1ccc(-c2ccc(C3CCC(c4c(F)cccc4F)=N3)cc2)nn1 (stereo not shown) [Example 49], the chromatographic logP was 1.26.
Compound O=C1CCCN1c1ccc(-c2ccc(C3CCC(c4c(F)cccc4F)=N3)cc2)nn1 (stereo not shown) [Example 50] has a chromatographic logP of 1.85.
With CCCN(CC)c1ccc(-c2ccc(C3CCC(c4c(F)cccc4F)=N3)cc2)nn1 (stereo not shown) [Example 52] the chromatographic logP was 1.6.
CN(c1ccc(-c2ccc(C3CCC(c4c(F)cccc4F)=N3)cc2)nn1)S(=O)(=O)C(F)(F)F (stereo not shown) [Example 53] gave a chromatographic logP of 1.66.
With CC(=O)N(c1ccc(-c2ccc(C3CCC(c4c(F)cccc4F)=N3)cc2)nn1)C(C)C (stereo not shown) [Example 54] the chromatographic logP was 2.03.
For CCCCN(CCCC)c1ccc(-c2ccc(C3CCC(c4c(F)cccc4F)=N3)cc2)nn1 (stereo not shown) [Example 55], the chromatographic logP was 2.56.
Compound CN(C(=O)C(C)(C)C)c1ccc(-c2ccc(C3CCC(c4c(F)cccc4F)=N3)cc2)nn1 (stereo not shown) [Example 56] has a chromatographic logP of 2.29.
Compound CCCCCCC(=O)N(c1ccc(-c2ccc(C3CCC(c4c(F)cccc4F)=N3)cc2)nn1)C1CCCC1 (stereo not shown) [Example 58] has a chromatographic logP of 4.82.
With CCCCCCC(=O)N(c1ccc(-c2ccc(C3CCC(c4c(F)cccc4F)=N3)cc2)nn1)C1CCCCC1 (stereo not shown) [Example 59] the chromatographic logP was 4.35.
CCCCCCN(C(C)=O)c1ccc(-c2ccc(C3CCC(c4c(F)cccc4F)=N3)cc2)nn1 (stereo not shown) [Example 60] gave a chromatographic logP of 3.11.
CCCCCCN(C(=O)C(C)(C)C)c1ccc(-c2ccc(C3CCC(c4c(F)cccc4F)=N3)cc2)nn1 (stereo not shown) [Example 61] gave a chromatographic logP of 4.35.
CCCN(C(=O)C(C)(C)C)c1ccc(-c2ccc(C3CCC(c4c(F)cccc4F)=N3)cc2)nn1 (stereo not shown) [Example 62] gave a chromatographic logP of 2.95.
CC(C)(C)C(=O)N(c1ccc(-c2ccc(C3CCC(c4c(F)cccc4F)=N3)cc2)nn1)C1CCCC1 (stereo not shown) [Example 63] gave a chromatographic logP of 3.22.
CCCCCCC(=O)N(CCC)c1ccc(-c2ccc(C3CCC(c4c(F)cccc4F)=N3)cc2)nn1 (stereo not shown) [Example 64] showed a chromatographic logP of 3.89.
CC(C)(C)C(=O)N(c1ccc(-c2ccc(C3CCC(c4c(F)cccc4F)=N3)cc2)nn1)C1CCCCC1 (stereo not shown) [Example 65] showed a chromatographic logP of 3.56.
CC(C)(C)C(=O)N(c1ccc(-c2ccc(C3CCC(c4c(F)cccc4F)=N3)cc2)nn1)C1CC1 (stereo not shown) [Example 66] gave a chromatographic logP of 2.53.
CC(=O)N(C)c1ccc(-c2ccc(C3CCC(c4c(F)cccc4F)=N3)cc2)nn1 (stereo not shown) [Example 67] showed a chromatographic logP of 1.48.
In the case of CCCCCC(=O)N(C)c1ccc(-c2ccc(C3CCC(c4c(F)cccc4F)=N3)cc2)nn1 (stereo not shown) [Example 68], the chromatographic logP is reported as 3.24.
With Fc1cccc(F)c1C1=NC(c2ccc(-c3ccc(OC(C(F)(F)F)C(F)(F)F)nn3)cc2)CC1 (stereo not shown) [Example 69] the chromatographic logP was 3.7.
Compound CCOC(=O)N1CCN(c2ccc(-c3ccc(C4CCC(c5c(F)cccc5F)=N4)cc3)nn2)CC1 (stereo not shown) [Example 70] has a chromatographic logP of 1.63.
Work on Fc1cccc(F)c1C1=NC(c2ccc(-c3ccc(OCCCC(F)(F)C(F)(F)F)nn3)cc2)CC1 (stereo not shown) [Example 73] yielded a chromatographic logP of 3.58.
FC(F)=C(F)CCOc1ccc(-c2ccc(C3CCC(c4c(F)cccc4F)=N3)cc2)nn1 (stereo not shown) [Example 74] showed a chromatographic logP of 2.95.
CCN(C)c1ccc(-c2ccc(C3CCC(c4c(F)cccc4F)=N3)cc2)nn1 (stereo not shown) [Example 75] showed a chromatographic logP of 1.23.
For CCCCN(CC)c1ccc(-c2ccc(C3CCC(c4c(F)cccc4F)=N3)cc2)nn1 (stereo not shown) [Example 77], the chromatographic logP was 1.82.
CCCN(CCC)c1ccc(-c2ccc(C3CCC(c4c(F)cccc4F)=N3)cc2)nn1 (stereo not shown) [Example 78] showed a chromatographic logP of 1.86.
Work on CN(C)c1ccc(-c2ccc(C3CCC(c4c(F)cccc4F)=N3)cc2)nn1 (stereo not shown) [Example 79] yielded a chromatographic logP of 1.08.
In the case of CCN(CC)c1ccc(-c2ccc(C3CCC(c4c(F)cccc4F)=N3)cc2)nn1 (stereo not shown) [Example 80], the chromatographic logP is reported as 1.39.
Work on Fc1cccc(F)c1C1=NC(c2ccc(-c3ccc(N4CCCC4)nn3)cc2)CC1 (stereo not shown) [Example 81] yielded a chromatographic logP of 1.28.
Compound CC(C)S(=O)(=O)c1ccc(-c2ccc(C3CCC(c4c(F)cccc4F)=N3)cc2)nn1 (stereo not shown) [Example 82] has a chromatographic logP of 1.4.
With CC(=O)OCCCN(Cc1ccc(-c2ccc(C3CCC(c4c(F)cccc4F)=N3)cc2)nn1)C(C)=O (stereo not shown) [Example 89] the chromatographic logP was 1.77.
